In one data set the test system is LIM domain kinase 1 mRNA. Briefly: Antisense inhibition of LIM domain kinase 1 expression, dose response in A549 cells, real-time quantitative PCR. The class given is cell-based, human. Particulars: for Percent Inhibition of LIM Domain Kinase 1 mRNA Levels: averaged from two experiments, normalized to untreated control; for reduction of LIM domain kinase 1 mRNA levels (dose response): 6, 25, 100 and 400 nM. On the procedure:
When cells reached 70% confluency, they were treated with oligonucleotide. […] Cells were harvested 16-24 hours after oligonucleotide treatment.
PCR reagents were obtained from Invitrogen Corporation, (Carlsbad, Calif.).
Probes and primers to human LIM domain kinase 1 were designed to hybridize to a human LIM domain kinase 1 sequence, using published sequence information (GenBank accession number D26309.1, incorporated herein as SEQ ID NO:4). For human LIM domain kinase 1 the PCR primers were: forward primer: […] (SEQ ID NO: 5) reverse primer: […] (SEQ ID NO: 6) and the PCR probe was: FAM-[…]-TAMRA (SEQ ID NO: 7) where FAM is the fluorescent dye and TAMRA is the quencher dye.
In accordance with the present invention, three of the oligonucleotides targeted to LIM domain kinase 1: ISIS 206212 ([…], SEQ ID NO: 67), ISIS 206219 ([…], SEQ ID NO: 74) and ISIS 206214 ([…], SEQ ID NO: 69) were investigated in a dose response experiment. The scrambled control oligonucleotides used in the dose response study were ISIS 129695 ([…], SEQ ID NO: 147), and ISIS 114845 ([…], SEQ ID NO: 148).
All cytidine residues are 5-methylcytidines.
In the dose-response experiment, with mRNA levels as the endpoint, A549 cells were treated with ISIS 206212, ISIS 206219, ISIS 206214 and control oligonucleotides at doses of 6, 25, 100 and 400 nM oligonucleotide. Data were obtained by real-time quantitative PCR as described in other examples herein and are averaged from two experiments with mRNA levels in the treatment groups, (including the scrambled control), being normalized to an untreated control group.

In data set [1] the test system is human LIM domain kinase 1 mRNA. Description: Antisense inhibition of human LIM domain kinase 1 mRNA levels, quantitative real-time PCR, A549 cells (screen). In kind it is cell-based. Particulars: for % INHIB (inhibition of human LIM domain kinase 1 mRNA levels): quantitative real-time PCR, averages from two experiments, screening concentration not given (50 nM to 300 nM used herein); for inhibition of human LIM domain kinase 1 expression (text summary of Table 1): real-time PCR, bound stated. The method in brief: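 A549 cells at 70% confluency treated with antisense oligonucleotides (all cytidines 5-methylcytidine), harvested 16-24 h later. LIMK1 mRNA measured by real-time RT-PCR with FAM/TAMRA probe, normalized to total RNA by RiboGreen; values are averages of two experiments.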
(Quantitative PCR measures a nucleic acid by following its amplification.)

Strand notation (5' to 3'): a small letter for the sugar, then the base; units joined by * are phosphorothioate-linked, units joined directly phosphodiester-linked; [ ] holds rarer units or linkages, { } end groups; capitals alone tell only the bases. e = 2'-O-(2-methoxyethyl) (MOE); [5mC] = 5-methylcytosine; d = 2'-deoxy (DNA)

Take “114845 (eT*eA*e[5mC]*eG*eT*d[5mC]*d[5mC]*dG*dG*dA*dG*dG*d[5mC]*dG*dT*eA*e[5mC]*eG*e[5mC]*e[5mC]) [compound 114845]”: the “Percent Inhibition of LIM Domain Kinase 1 mRNA Levels” value (“Percent Inhibition” below) with LIM domain kinase 1 mRNA (dose 6 nM) stood at 0%; with LIM domain kinase 1 mRNA (dose 25 nM), 0%; with LIM domain kinase 1 mRNA (dose 100 nM), 0%; in the data set with LIM domain kinase 1 mRNA (dose 400 nM), 24%.

As to “129695 (eT*eT*e[5mC]*eT*eA*d[5mC]*d[5mC]*dT*d[5mC]*dG*d[5mC]*dG*d[5mC]*dG*dA*eT*eT*eT*eA*e[5mC]) [compound 129695]”, the “Percent Inhibition” value is 2% with LIM domain kinase 1 mRNA (dose 6 nM), 0% with LIM domain kinase 1 mRNA (dose 25 nM), 12% with LIM domain kinase 1 mRNA (dose 100 nM) and 62% in the data set with LIM domain kinase 1 mRNA (dose 400 nM).

As for “206212 (antisense eA*e[5mC]*eT*e[5mC]*e[5mC]*d[5mC]*d[5mC]*dA*dT*dT*dT*dG*dG*dT*dT*e[5mC]*e[5mC]*eT*eG*eG) [compound 206212]”, the “% INHIB (inhibition of human LIM domain kinase 1 mRNA levels)” value (“% INHIB” below) in data set [1] was found to be 91%. The “Percent Inhibition” value worked out at 0% with LIM domain kinase 1 mRNA (dose 6 nM), 73% with LIM domain kinase 1 mRNA (dose 25 nM), 91% in the data set on LIM domain kinase 1 mRNA (dose 100 nM) and 97% in the data set on LIM domain kinase 1 mRNA (dose 400 nM).

As for “206214 (antisense e[5mC]*e[5mC]*eG*eG*e[5mC]*d[5mC]*dA*dG*dG*dG*d[5mC]*dA*d[5mC]*d[5mC]*dG*e[5mC]*eA*eG*e[5mC]*eT) [compound 206214]”, the “% INHIB” value in data set [1] came out at 87%. Also, the “Percent Inhibition” value with LIM domain kinase 1 mRNA (dose 6 nM) was 0%; in the data set on LIM domain kinase 1 mRNA (dose 25 nM) it was 46%; in the data set with LIM domain kinase 1 mRNA (dose 100 nM), 84%; in the data set on LIM domain kinase 1 mRNA (dose 400 nM), 98%.

Consider “206219 (antisense eT*eG*e[5mC]*eA*e[5mC]*dT*dG*dA*dG*dA*dA*dA*dG*d[5mC]*dT*eT*e[5mC]*eA*e[5mC]*eA) [compound 206219]”, for which, in data set [1], the “% INHIB” value came out at 89%. Moreover, the “Percent Inhibition” value with LIM domain kinase 1 mRNA (dose 6 nM) was determined as 0%; in the data set on LIM domain kinase 1 mRNA (dose 25 nM) it was 67%; in the data set on LIM domain kinase 1 mRNA (dose 100 nM) it was 84%; with LIM domain kinase 1 mRNA (dose 400 nM), 93%.

Consider “actccccatttggttcctgg (eA*e[5mC]*eT*e[5mC]*e[5mC]*d[5mC]*d[5mC]*dA*dT*dT*dT*dG*dG*dT*dT*e[5mC]*e[5mC]*eT*eG*eG; antisense) [ISIS 206212]”, for which the “inhibition of human LIM domain kinase 1 expression (text summary of Table 1)” value (shortened to “inhibition … (text summary of Table 1)”) in data set [1] is recorded as “at least 65%”. Further, the “reduction of LIM domain kinase 1 mRNA levels (dose response)” value (“reduction” below) with LIM domain kinase 1 mRNA is “capable of reducing LIM domain kinase 1 mRNA levels in a dose-dependent manner”.

As to “ccggccagggcaccgcagct (e[5mC]*e[5mC]*eG*eG*e[5mC]*d[5mC]*dA*dG*dG*dG*d[5mC]*dA*d[5mC]*d[5mC]*dG*e[5mC]*eA*eG*e[5mC]*eT; antisense) [ISIS 206214]”, the “inhibition … (text summary of Table 1)” value in data set [1] is listed as “at least 65%”. In addition, the “reduction” value in the data set with LIM domain kinase 1 mRNA is listed as “capable of reducing LIM domain kinase 1 mRNA levels in a dose-dependent manner”.

With “tgcactgagaaagcttcaca (eT*eG*e[5mC]*eA*e[5mC]*dT*dG*dA*dG*dA*dA*dA*dG*d[5mC]*dT*eT*e[5mC]*eA*e[5mC]*eA; antisense) [ISIS 206219]”, the “inhibition … (text summary of Table 1)” value in data set [1] is given as “at least 65%”. In addition, in the data set on LIM domain kinase 1 mRNA, the “reduction” value was “capable of reducing LIM domain kinase 1 mRNA levels in a dose-dependent manner”.

(Values after US20040014047A1, “Antisense modulation of LIM domain kinase 1 expression” (Isis Pharmaceuticals Inc., priority 2002, published 2004).)
